14 molecules from US7767685B2, “Adenosine A2B receptor antagonists” (King Pharmaceuticals Research and Development, Inc., priority 2006, dated 2010) can be followed below.

pKi: −log10 of the molar value.

This test addresses T1, human A2B adenosine receptors (Homo sapiens, UniProt P29275).
T1 construct: expressed in transfected cells; host or cells: CHO cells (whole cells)
T1 sequence (P29275 1-332): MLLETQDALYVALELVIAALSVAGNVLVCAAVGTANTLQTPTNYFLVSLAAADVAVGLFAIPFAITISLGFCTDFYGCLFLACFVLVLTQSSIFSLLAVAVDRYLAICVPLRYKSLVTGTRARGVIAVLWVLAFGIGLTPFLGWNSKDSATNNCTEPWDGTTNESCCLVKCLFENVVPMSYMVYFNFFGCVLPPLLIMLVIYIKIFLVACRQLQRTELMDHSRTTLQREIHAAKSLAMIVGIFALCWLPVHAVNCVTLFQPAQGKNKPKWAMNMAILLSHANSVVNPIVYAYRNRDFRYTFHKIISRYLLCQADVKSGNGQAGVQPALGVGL
As to the kind of experiment: Displacement of [3H]MRE2029F20 binding at human A2B adenosine receptors. Particulars: [3H]MRE2029F20 displacement, human A2B receptors (footnote: HEK293 cells; method: CHO cells), n = 3-6; geometric mean (95% confidence limits); read-out: Ki hA2B. How it is done: […] (Naunyn-Schmied. Arch Pharm. 1998, 357: 1-9). Briefly, the cells are grown adherently and maintained in Dulbecco's Modified Eagles Medium with nutrient mixture F12 (DMEM/F12) without nucleosides, containing 10% fetal calf serum, penicillin (100 U/mL), streptomycin (100 μg/mL), L-glutamine (2 mM) and Geneticin (G418, 0.2 mg/ml) at 37° C. in 5% CO2/95% air. For membrane preparation the culture medium is removed and the cells are washed with phosphate-buffered saline and scraped off T75 flasks in ice-cold hypo tonic buffer (5 mM Tris HCl, 1 mM EDTA, pH 7.4). The cell suspension is homogenized with Polytron, the homogenate is spun for 10 min at 1000×g and the supernatant is then centrifuged for 30 min at 100,000×g. The membrane pellet is suspended in 50 mM Tris HCl buffer (pH 7.4) for A1 adenosine receptors, in 50 mM Tris HCl, 10 mM MgCl2 (pH 7.4) for A2A adenosine receptors, in 50 mM Tris HCl, 10 mM MgCl2, 1 mM EDTA (pH 7.4) for A2B and A3 adenosine receptors.
All new synthesized compounds have been tested to evaluate their affinity to human A1, A2A, A2B and A3 adenosine receptors. […] Pharmacol., 2000, 57: 968-975). Non-specific binding is determined in the presence of 10 μM of CHA and this is always ≦10% of the total binding. […] recombinant A2A adenosine receptors is performed using a suspension of membranes (50 μg of protein/assay) and at least 6-8 different concentrations of studied antagonists for an incubation time of 60 min at 4° C. Non-specific binding is determined in the presence of 1 μM ZM 241385 and is about 20% of total binding. […] Non-specific binding is defined as binding in the presence of 1 μM MRE 3029F20 and is about 25% of total binding. […] Non-specific binding is defined as binding in the presence of 1 μM MRE 3008F20 and is about 25% of total binding. Bound and free radioactivity are separated by filtering the assay mixture through Whatman GF/B glass fiber filters using a Micro-Mate 196 cell harvester (Packard Instrument Co.). The filter bound radioactivity is counted on a Top Count (efficiency 57%) with Micro-Scint 20.
The protein concentration is determined according to a Bio-Rad method (Bradford, Anal Biochem. 1976, 72: 248-254) with bovine albumin as a standard reference. Inhibitory binding constant, Ki, values are calculated from those of IC50 according to Cheng & Prusoff equation (Biochem. Pharmacol 1973, 22: 3099-3108): Ki=IC50/(1+[C*]/KD*) where [C*] is the concentration of the radioligand and KD* its dissociation constant. A weighted non linear least-squares curve fitting program LIGAND (Munson et al., Anal. Biochem 1980, 107: 220-239) is used for computer analysis of inhibition experiments Data are expressed as geometric mean with 95% confidence limits in parentheses. Examples of Animal Models
On the technique in general: Loss of bound radioactivity is the signal in a displacement assay; it reports binding, not function.
By pKi is commonly meant the Ki on a negative log10 scale, so that one unit is a factor of ten. For the molecule `CCCn1c(=O)c2[nH]c(-c3cc(C)n(CC(=O)Nc4ccccc4)n3)nc2n(CCC)c1=O` [Example 1, 2-[3-(2,6-Dioxo-1,3-dipropyl-2,3,6,7-tetrahydro-1H-purin-8-yl)-5-methyl-pyrazol-1-yl]-N-phenyl-acetamide], the pKi was 7.82.
With `CCCn1c(=O)c2[nH]c(-c3cc(C)n(CC(=O)Nc4ccc(I)cc4)n3)nc2n(CCC)c1=O` [Example 2, 2-[3-(2,6-Dioxo-1,3-dipropyl-2,3,6,7-tetrahydro-1H-purin-8-yl)-5-methyl-pyrazol-1-yl]-N-(4-iodophenyl)-acetamide], the pKi was 7.55.
In the case of `CCCn1c(=O)c2[nH]c(-c3cc(C)n(CC(=O)Nc4ccc(F)cc4)n3)nc2n(CCC)c1=O` [Example 5, 2-[3-(2,6-Dioxo-1,3-dipropyl-2,3,6,7-tetrahydro-1H-purin-8-yl)-5-methyl-pyrazol-1-yl]-N-(4-fluoro-phenyl)-acetamide], the pKi was 7.85.
For `CCCn1c(=O)c2[nH]c(-c3cc(C)n(CC(=O)Nc4ccc(OC)cc4)n3)nc2n(CCC)c1=O` [Example 6, 2-[3-(2,6-Dioxo-1,3-dipropyl-2,3,6,7-tetrahydro-1H-purin-8-yl)-5-methyl-pyrazol-1-yl]-N-(4-methoxyphenyl)-acetamide] the value was 7.92.
Then `CCCn1c(=O)c2[nH]c(-c3cc(C)n(CC(=O)Nc4ccc(C)c(C)c4)n3)nc2n(CCC)c1=O` [Example 7, 2-[3-(2,6-Dioxo-1,3-dipropyl-2,3,6,7-tetrahydro-1H-purin-8-yl)-5-methyl-pyrazol-1-yl]-N-(3,4-dimethylphenyl)-acetamide], with 7.32; and `CCCn1c(=O)c2[nH]c(-c3cc(C)n(CC(=O)Nc4ccc(OC)c(OC)c4)n3)nc2n(CCC)c1=O` [Example 8, 2-[3-(2,6-Dioxo-1,3-dipropyl-2,3,6,7-tetrahydro-1H-purin-8-yl)-5-methyl-pyrazol-1-yl]-N-(3,4-dimethoxyphenyl)-acetamide], with 7.22; and `CCCn1c(=O)c2[nH]c(-c3ccn(CC(=O)Nc4ccc(Cl)cc4)n3)nc2n(CCC)c1=O` [Example 10, 2-[3-(2,6-Dioxo-1,3-dipropyl-2,3,6,7-tetrahydro-1H-purin-8-yl)-pyrazol-1-yl]-N-(4-chloro-phenyl)-acetamide], with 7.70.
Then `CCCn1c(=O)c2[nH]c(-c3cc(C)n(CC(=O)Nc4ccc(C(C)CC)cc4)n3)nc2n(CCC)c1=O` (centres unmarked) [Example 12, 2-[3-(2,6-Dioxo-1,3-dipropyl-2,3,6,7-tetrahydro-1H-purin-8-yl)-5-methyl-pyrazol-1-yl]-N-(4-sec-butylphenyl)-acetamide], with < 6.00.
`CCCn1c(=O)c2[nH]c(-c3cc(C)n(CC(=O)Nc4cccc(OC)c4)n3)nc2n(CCC)c1=O` [Example 14, 2-[3-(2,6-Dioxo-1,3-dipropyl-2,3,6,7-tetrahydro-1H-purin-8-yl)-5-methyl-pyrazol-1-yl]-N-(3-methoxylphenyl)-acetamide]: the pKi was 7.19.
Then `CCCn1c(=O)c2[nH]c(-c3cc(C)n(CC(=O)Nc4cccc(Cl)c4)n3)nc2n(CCC)c1=O` [Example 15, 2-[3-(2,6-Dioxo-1,3-dipropyl-2,3,6,7-tetrahydro-1H-purin-8-yl)-5-methyl-pyrazol-1-yl]-N-(3-chlorophenyl)-acetamide], with 7.55; and `CCCn1c(=O)c2[nH]c(-c3cc(C)n(CC(=O)Nc4ccc(Cl)c(Cl)c4)n3)nc2n(CCC)c1=O` [Example 16, 2-[3-(2,6-Dioxo-1,3-dipropyl-2,3,6,7-tetrahydro-1H-purin-8-yl)-5-methyl-pyrazol-1-yl]-N-(3,4-dichlorophenyl)-acetamide], with 7.40; and `CCCn1c(=O)c2[nH]c(-c3cc(C)n(CC(=O)Nc4ccc(C)cc4)n3)nc2n(CCC)c1=O` [Example 17, 2-[3-(2,6-Dioxo-1,3-dipropyl-2,3,6,7-tetrahydro-1H-purin-8-yl)-5-methyl-pyrazol-1-yl]-N-p-tolyl-acetamide], with 7.25.
Then `CCCn1c(=O)c2[nH]c(-c3nn(CC(=O)Nc4ccc(Cl)cc4)c(C)c3Cl)nc2n(CCC)c1=O` [Example 18, 2-[4-Chloro-3-(2,6-dioxo-1,3-dipropyl-2,3,6,7-tetrahydro-1H-purin-8-yl)-5-methyl-pyrazol-1-yl]-N-(4-chlorophenyl)-acetamide], with 6.65; and `CCCn1c(=O)c2[nH]c(-c3nn(CC(=O)Nc4ccc(Cl)cc4)c(C)c3Br)nc2n(CCC)c1=O` [Example 19, 2-[4-Bromo-3-(2,6-dioxo-1,3-dipropyl-2,3,6,7-tetrahydro-1H-purin-8-yl)-5-methyl-pyrazol-1-yl]-N-(4-chlorophenyl)-acetamide], with 6.60.
